# From US20210038730A1, “PEPTIDE NANOFIBERS” (UNIVERSITY OF PORTSMOUTH HIGHER EDUCATION CORPORATION, priority 2018, published 2021)
# Tests used:
# U-87 MG cells [1] = assay: Cell cycle (propidium iodide flow cytometry); assay type: cell-based, human
# Experimental: (§1) In vitro antitumour effects of TPGnRH and PAX-loaded TPGnRH were assessed in U-87 MG cells, UP-007, UP-029, SEBTA-023 MDA-MD-231 [triple negative (ER^−, PR—, HER2^−) breast cancer cell line] and SK-OV-3 (human ovarian carcinoma with a low expression of GnRH-R). Cells were seeded at 1,400 cells/cm^2 and allowed to attach and grow for 3 days. In experiments with TPGnRH nanofibers alone (to obtain the IC50 value in each cell line), cells were treated with medium supplemented with the peptide solutions in PBS (0.7 to 700 μM) to achieve a final concentration of 0.07 to 70 μM per well. Media was replaced by fresh media every two days for 6 days. […] On day 4, PAX-loaded TPGnRH nanofibers containing 1 nM of PAX and 7 or 35 μM of TPGnRH were added and the effect on cell viability, proliferation, cell cycle, and apoptosis was assessed on day 6. Only for the MDA-MB-231 cells, on day 4, PAX-loaded TPGnRH nanofibers containing 10 nM of PAX and 7 or 35 μM of TPGnRH were added and the effect on cell viability, proliferation, cell cycle, and apoptosis was also assessed on day 6. […] Cell metabolic activity was measured using MTT assay. […] Afterwards, dimethyl sulfoxide (100 μL) was added to the wells to dissolve the formazan crystals and the absorbance was measured at 570 and 690 nm. […] Cells were incubated with BrdU for 24 hours before the end of the pre-determined time-points. […]
# U-87 MG cells [2] = assay: Apoptosis (Annexin V-FITC); assay type: cell-based, human; conditions: >7 μM, every two days, 6 days of treatment
# Experimental: as §1
# GnRH-R = target: T1, GnRH-R (Homo sapiens, UniProt P30968); assay: Forskolin-induced intracellular cAMP ELISA; assay type: cell-based; conditions: forskolin 5 μM, 15 minutes
# T1 construct: The intracellular cAMP was quantified using the Direct cAMP ELISA kit; endogenous in cells
# T1 sequence (P30968 1-328): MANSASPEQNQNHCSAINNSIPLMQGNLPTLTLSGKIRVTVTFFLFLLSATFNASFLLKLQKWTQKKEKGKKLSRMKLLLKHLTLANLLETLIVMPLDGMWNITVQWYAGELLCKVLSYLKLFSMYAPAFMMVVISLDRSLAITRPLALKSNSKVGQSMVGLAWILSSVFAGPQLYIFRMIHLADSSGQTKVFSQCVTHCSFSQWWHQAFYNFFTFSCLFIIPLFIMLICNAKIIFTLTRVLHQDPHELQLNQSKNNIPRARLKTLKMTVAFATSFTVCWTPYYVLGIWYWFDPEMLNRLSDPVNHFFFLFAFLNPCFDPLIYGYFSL
# in vivo = conditions: male, BALB/c, mouse, iv, 35 mg/kg
# Experimental: (§2) At 5 and 60 minutes, mice were killed and the blood and brain were harvested. Blood samples (0.5-0.7 mL per mouse) were collected into evacuated, sterile, spray coated with tripotassium ethylenediamine tetraacetic acid (3.6 mg), medical grade PET tubes. […] Brain was weighted and homogenised with ice-cold PBS (1×, 7.4) using a 3 mL glass homogeniser. Plasma (100 μL) and brain homogenate (˜800 μL) were extracted with equal volumes of ice-cold acetonitrile three times and samples were dried using a centrifugal concentrator (SPD1010 SpeedVac System, ThermoSavant, Renfrewshire, United Kingdom) under vacuum over 2 hours and 4 hours respectively. Samples were orbitally agitated using a SciQuip Microplate Shaker attached to a tube adapter for 1.5-2 mL tubes (10 mm) for 10 minutes prior being centrifuged at 8,000 rpm for 5 minutes. Supernatants were pipetted in 0.2 mL amber vials and was quantified by reverse phase-HPLC. Analysis was conducted on Onyx Monolithic C18 column (4.6 mm×10+100 mm, 5 μm pore size) with a gradient method (Table 13) using an Agilent 1200 Series HPLC system (Agilent Technologies, Cheadle, UK). […] Injection volume was 40 μL, and the detection was performed at 220 nm and 280 nm.
# [3] = In vivo pharmacokinetic study, intravenous; conditions: mice
# Experimental: as §2
# [4] = Enzymatic stability in rat brain homogenates; conditions: 50% (v/v) rat brain homogenates
# Experimental: Fresh blood, obtained from adult male Wistar rats, was collected in sterile the 170 I.U. lithium heparin-coated tubes (Vacutainer, BD Bioscience, UK). Blood was centrifuged immediately at 2,000 g for 15 minutes (4° C.) and supernatant was collected and diluted to 50% (v/v) with PBS. Livers and brains were obtained from adult male Wistar rats, and the tissues were blotted to dryness, weighed, sliced into pieces, and homogenised with ice-cold PBS (in 2 mL of buffer g^−1 of tissue) using the glass homogeniser. Then, tissue homogenates were centrifuged at 4,300 g for 1 hour (4° C.) and the supernatants collected. Glioblastoma cell homogenates were prepared using U-87 MG cells. Cells were cultured in Eagle's Minimum Essential Medium (EMEM) supplemented with 10% (v/v) heat-inactivated fetal bovine serum (FBS), 1% (v/v) of non-essential amino acids (NEAA) and 1 mM of sodium pyruvate in T75 flasks with a surface area of 75 cm^2 and maintained in a humidified atmosphere of 5% CO2 at 37° C. Breast cancer cell homogenates were prepared using MDA-MB-231 cells. Cells were cultured in Dulbecco's Modified Eagle Medium (DMEM) supplemented with high levels of glucose (4.5 g/L), 10% (v/v) heat-inactivated fetal bovine serum (FBS), 1% (v/v) of non-essential amino acids (NEAA) and penicillin and streptomycin (500 units/mL) in T75 flasks with a surface area of 75 cm^2 and maintained in a humidified atmosphere of 5% CO2 at 37° C. Media was changed for both cell lines every 3 to 4 days. After reaching confluence, cells were washed twice with Hank's Balanced Salt Solution (HBSS) and incubated with ˜2 mL of TrypLE Enzyme at 37° C. for ˜3 minutes. Then, complete media were added, and cells were centrifuged at 1,000 rpm for 5 minutes in C-28A centrifuge (Boeco, Germany). U-87 MG or MDA-MB-231 cells (˜10×10^6 cells mL^−1) were re-suspended in ice-cold PBS, and homogenised with a 2×5 second pulses with the probe sonicator (UP200S Ultrasonic processor, SciMed, 200 watts, amplitude of 60%). Cell debris were removed by centrifugation at 2,000 rpm for 5 minutes (Jouan B4i, Thermo Scientific, Paisley, UK). Supernatant was collected and stored at −80° C. Total protein concentration in the homogenates was determined using the Bradford assay with bovine serum albumin as a standard. Diluted plasma, tissue or cell homogenates were pre-warmed during ˜30 minutes at 37° C. Peptide stock solutions (Glu-GnRH, goserelin acetate and TPGnRH, 5 mM in PBS, 500 μL) were prepared and added to the homogenate solutions (120 μL). […] Samples were vortexed for 15 minutes, centrifuged for 15 minutes at 12,000 rpm, and the supernatants were collected and analysed by RP-HPLC.
# [5] = Enzymatic stability in MDA-MB-231 cell homogenates
# Experimental: Fresh blood, obtained from adult male Wistar rats, was collected in sterile the 170 I.U. lithium heparin-coated tubes (Vacutainer, BD Bioscience, UK). Blood was centrifuged immediately at 2,000 g for 15 minutes (4° C.) and supernatant was collected and diluted to 50% (v/v) with PBS. Livers and brains were obtained from adult male Wistar rats, and the tissues were blotted to dryness, weighed, sliced into pieces, and homogenised with ice-cold PBS (in 2 mL of buffer g^−1 of tissue) using the glass homogeniser. Then, tissue homogenates were centrifuged at 4,300 g for 1 hour (4° C.) and the supernatants collected. Glioblastoma cell homogenates were prepared using U-87 MG cells. Cells were cultured in Eagle's Minimum Essential Medium (EMEM) supplemented with 10% (v/v) heat-inactivated fetal bovine serum (FBS), 1% (v/v) of non-essential amino acids (NEAA) and 1 mM of sodium pyruvate in T75 flasks with a surface area of 75 cm^2 and maintained in a humidified atmosphere of 5% CO2 at 37° C. Breast cancer cell homogenates were prepared using MDA-MB-231 cells. Cells were cultured in Dulbecco's Modified Eagle Medium (DMEM) supplemented with high levels of glucose (4.5 g/L), 10% (v/v) heat-inactivated fetal bovine serum (FBS), 1% (v/v) of non-essential amino acids (NEAA) and penicillin and streptomycin (500 units/mL) in T75 flasks with a surface area of 75 cm^2 and maintained in a humidified atmosphere of 5% CO2 at 37° C. Media was changed for both cell lines every 3 to 4 days. After reaching confluence, cells were washed twice with Hank's Balanced Salt Solution (HBSS) and incubated with ˜2 mL of TrypLE Enzyme at 37° C. for ˜3 minutes. Then, complete media were added, and cells were centrifuged at 1,000 rpm for 5 minutes in C-28A centrifuge (Boeco, Germany). U-87 MG or MDA-MB-231 cells (˜10×10^6 cells mL^−1) were re-suspended in ice-cold PBS, and homogenised with a 2×5 second pulses with the probe sonicator (UP200S Ultrasonic processor, SciMed, 200 watts, amplitude of 60%). Cell debris were removed by centrifugation at 2,000 rpm for 5 minutes (Jouan B4i, Thermo Scientific, Paisley, UK). Supernatant was collected and stored at −80° C. Total protein concentration in the homogenates was determined using the Bradford assay with bovine serum albumin as a standard. Diluted plasma, tissue or cell homogenates were pre-warmed during ˜30 minutes at 37° C. Peptide stock solutions (Glu-GnRH, goserelin acetate and TPGnRH, 5 mM in PBS, 500 μL) were prepared and added to the homogenate solutions (120 μL). PAX-loaded nanofibers prepared at a ratio of 1:7.36 [PAX:TPGnRH consisting of 3 μmol (2.56 mg mL^−1) of PAX, 22.02 μmol (31.46 mg mL^−1) of TPGnRH], as previously described, and further diluted in PBS to achieve a concentration of 5 mM of TPGnRH and 500 nM of PAX (120 μL) were added to the homogenates. At various time intervals, an aliquot was collected (80 μL) and added to ice-cold ACN (80 μL) to quench the enzymatic activity. Samples were stored at −80° C. for at least 3 hours to maximise protein precipitation. Samples were vortexed for 15 minutes, centrifuged for 15 minutes at 12,000 rpm, and the supernatants were collected and analysed by RP-HPLC.
# [6] = human, MDA-MB-231 breast cancer cell homogenate
smiles,measurement,setting,value
"CCCCCCCCCCCCCCCC(=O)Oc1ccc(C[C@H](NC(=O)[C@H](CO)NC(=O)[C@H](Cc2c[nH]c3ccccc23)NC(=O)[C@H](Cc2c[nH]cn2)NC(=O)[C@@H](N)CCC(=O)O)C(=O)NCC(=O)N[C@@H](CC(C)C)C(=O)N[C@@H](CCCNC(=N)N)C(=O)N2CCC[C@H]2C(=O)NCC(N)=O)cc1 [TPGnRH, Tyrosine (O-Palmitoyl)-Glu-GnRH]",effect on cell cycle,"U-87 MG cells [1]; >7 μM, every two days, 6 days of treatment",cell cycle arrest at the G2/M phase
same,percentage of cells at G2/M,"U-87 MG cells [1]; day 6, TPGnRH alone at 35 μM or TPGnRH 4 days then one dose of PAX-loaded TPGnRH",21.81±3.98%
same,effect on apoptosis,U-87 MG cells [2],trigger apoptosis
same,effect on forskolin-induced cAMP intracellular accumulation,GnRH-R,counteracted the forskolin-induced cAMP intracellular accumulation
same,tissue level at time at 5 min,in vivo; brain,3080 ± 1010 ng/g
same,tissue level at time at 1 h,in vivo; brain,3470 ± 80 ng/g
same,level at 5 min,in vivo; plasma,545 ± 342 µg/mL
same,level at 1 h,in vivo; plasma,45.6 ± 10.1 µg/mL
same,tolerability,"[3]; intravenous 35 mg kg^−1, no immediate signs of toxicity, no gross alterations in liver, spleen, lungs, kidneys",well tolerated
same,dose in blood,"[3]; intravenous, after 1 hour",~6 % of dose
same,k,[4]; analyte in brackets of label,0.1781 min⁻¹
same,"remaining at 8 h, 4.03 mM","[4]; male, Wistar, rat",> 80%
same,Plateau,[5]; MDA-MB-231 cell homogenates,325.8 µg/mL
same,k,[5]; MDA-MB-231 cell homogenates,2.224 min⁻¹
same,AUC(0-t) at 4.03 mM,[5]; [6],105000 µg·h/mL
same,C0 at 4.03 mM,[5]; [6],710 µg/mL
